What is called Kd is the concentration at which binding is half-saturated. The term MIC50 denotes the lowest concentration that inhibits either 50% of growth or 50% of the strains tested, depending on the study. Usually ΔTm stands for the shift of the melting midpoint relative to a reference. What is called MIC is the smallest concentration in the dilution series that meets the test's criterion for growth inhibition. The MIC99 is the lowest concentration that inhibits either 99% of growth or 99% of the strains tested, depending on the study. One may read the EC50 as the concentration giving half of the maximal effect. For orientation: MIC90 means the lowest concentration that inhibits either 90% of growth or 90% of the strains tested, depending on the study.

Converted amounts (≈) assume the structure as drawn.

For data set [1], the target named is T1, Enoyl-[acyl-carrier-protein] reductase [NADH] (Mycobacterium tuberculosis, UniProt P9WGR1).
T1 sequence (P9WGR1 whole entry): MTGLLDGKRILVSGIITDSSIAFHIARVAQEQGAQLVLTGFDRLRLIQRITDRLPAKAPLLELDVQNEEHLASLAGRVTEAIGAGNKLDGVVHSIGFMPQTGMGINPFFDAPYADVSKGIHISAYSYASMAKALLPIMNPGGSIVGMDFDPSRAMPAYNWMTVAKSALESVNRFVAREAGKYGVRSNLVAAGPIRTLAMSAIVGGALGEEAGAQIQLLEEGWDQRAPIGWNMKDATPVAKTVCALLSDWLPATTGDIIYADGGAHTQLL
Put plainly: Binding affinity to Mycobacterium tuberculosis InhA assessed as dissociation constant.

Data set [2] relates to Mycobacterium tuberculosis. Nature of the data set: Antimycobacterial activity against Mycobacterium tuberculosis assessed as reduction in microbial growth by broth microdilution method. It counts as functional. A general note: In broth dilution the organism is exposed to a series of concentrations in liquid medium.
Data set [3] deals with Mycobacterium tuberculosis. Put plainly: Binding affinity to Mycobacterium tuberculosis RV0078 EthR2 assessed as change in melting temperature at 20 uM by thermal shift assay.
A short description of data set [4]: Inhibition of Mycobacterium tuberculosis RV0078 EthR2.
Data set [5] addresses T1, Enoyl-[acyl-carrier-protein] reductase [NADH]. Nature of the data set: Inhibition of Mycobacterium tuberculosis InhA.
The target of data set [6] is HTH-type transcriptional regulator EthR (Mycobacterium tuberculosis) (UniProt P9WMC1). Put plainly: Binding affinity to Mycobacterium tuberculosis EthR assessed as change in melting temperature at 20 uM by thermal shift assay.
HTH-type transcriptional regulator EthR (Mycobacterium tuberculosis), sequence (P9WMC1 whole entry): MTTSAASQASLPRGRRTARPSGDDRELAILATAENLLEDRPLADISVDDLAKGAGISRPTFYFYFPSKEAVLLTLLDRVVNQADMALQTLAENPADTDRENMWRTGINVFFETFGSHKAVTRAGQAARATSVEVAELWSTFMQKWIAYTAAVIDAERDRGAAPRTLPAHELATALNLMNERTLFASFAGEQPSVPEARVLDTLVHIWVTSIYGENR
For data set [7] the target is unchanged. Put plainly: Binding affinity to Mycobacterium tuberculosis EthR assessed as change in melting temperature at 100 uM by thermal shift assay.
In data set [8] the target is HTH-type transcriptional regulator EthR (Mycobacterium tuberculosis, UniProt P9WMC1). Nature of the data set: Inhibition of Mycobacterium tuberculosis EthR by SPR assay. (In general: In SPR one partner is held on a chip, and binding of the other changes the refractive index at the surface.)
HTH-type transcriptional regulator EthR, sequence (P9WMC1 whole entry): as above
Data set [9] in a line: Inhibition of N-terminal His-tagged wild type Mycobacterium tuberculosis Rv1837c GlcB expressed in Escherichia coli BL21 by chromatography method.
The subject of data set [10] is Mycobacterium tuberculosis. Nature of the data set: Antibacterial activity against Mycobacterium tuberculosis ATCC 27294 assessed as inhibition of cell growth incubated for 7 days by broth dilution method. Type of data set: functional. Particulars: ATCC 27294, 168 h, time 7 day.
Data set [11] has as its system Mycobacterium tuberculosis. Nature of the data set: Antimycobacterial activity against Mycobacterial tuberculosis assessed as log reduction of bacterial load. It counts as functional.
The test system of data set [12] is Mycobacterium tuberculosis. Put plainly: Antibacterial activity against Mycobacterium tuberculosis ATCC 27294 assessed as reduction in bacterial cell growth measured after 48 hrs by broth microdilution method. It counts as functional.
A further data set addresses T2, Dihydrofolate reductase (Mycobacterium tuberculosis, UniProt P9WNX1).
T2 sequence (P9WNX1 whole entry): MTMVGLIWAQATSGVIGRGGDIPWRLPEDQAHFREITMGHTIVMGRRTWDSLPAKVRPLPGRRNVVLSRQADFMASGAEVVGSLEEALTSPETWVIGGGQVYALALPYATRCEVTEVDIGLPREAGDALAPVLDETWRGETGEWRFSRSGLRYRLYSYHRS
Put plainly: Binding affinity to Mycobacterium tuberculosis DHFR assessed as dissociation constant.

The target in data set [13] is T3, Dihydrofolate reductase (Mycobacterium tuberculosis) (UniProt P9WNX1).
T3 sequence (whole entry): T2 sequence (P9WNX1 whole entry)
Nature of the data set: Binding affinity to Mycobacterium tuberculosis DHFR assessed as change in melting temperature at 5 uM by thermal shift assay.

Data set [14] in a line: Metabolic stability in CD-1 mouse liver microsomes assessed as intrinsic clearance at 20 uM measured after 40 mins by LC-MS/MS analysis. It counts as ADME, Microsome. In general terms: Liver microsomes are vesicles of endoplasmic reticulum, rich in cytochrome P450 enzymes.
Data set [15] deals with Mycobacterium tuberculosis. Nature of the data set: Antimycobacterial activity against Mycobacterium tuberculosis Erdman infected in BALB/c mouse model assessed as log reduction of bacterial load in lung at 200 mg/kg administered via oral gavage for 2 weeks. It counts as functional.
In data set [16] the test system is Mycobacterium tuberculosis. Nature of the data set: Antimycobacterial activity against Mycobacterium tuberculosis infected in mouse macrophage cells assessed as bacterial growth inhibition. It counts as functional, organism-based.
The test system of data set [17] is Mycobacterium tuberculosis. Put plainly: Antimycobacterial activity against Mycobacterium tuberculosis H37Rv assessed as reduction in bacterial growth incubated for 7 days by resazurin dye based assay. The note with it: 168 h, time 7 day. Type of data set: functional.
Data set [18] relates to Mycobacterium tuberculosis. Nature of the data set: Binding affinity to Mycobacterium tuberculosis RV0078 EthR2 assessed as change in melting temperature at 1 uM by thermal shift assay.
Data set [19] can be described thus: Metabolic stability in mouse liver microsomes assessed as intrinsic clearance. Type of data set: ADME, Microsome. Particulars: read-out: CLH.
For data set [20], the system named is Mycobacterium tuberculosis. Nature of the data set: Antimycobacterial activity against Mycobacterium tuberculosis […] assessed as reduction in bacterial growth incubated for 48 hrs by resazurin dye based analysis. Type of data set: functional.
Data set [21] relates to Mycobacterium tuberculosis. Nature of the data set: Antimycobacterial activity against Mycobacterium tuberculosis H37Rv assessed as reduction in bacterial cell growth measured after 7 days by resazurin dye based analysis. It counts as functional. Particulars: 168 h, time 7 day.
For data set [22], the system named is Mycobacterium tuberculosis. Put plainly: Antimycobacterial activity against Mycobacterium tuberculosis H37Rv ATCC 25618 assessed as bacterial growth inhibition. It counts as functional.

In the case of `Cc1cc(N)n(Cc2ccccc2)n1`, the dissociation constant (Kd) in [1] came to 3.3 µM.

`O=C(CCCC1CCCCC1)N1CCCC1`: the MIC50 in data set [2] turned out to be 1 µM. Consider `Cc1ccn(C(C)c2nnc(Nc3ccn(Cc4c(F)cccc4Cl)n3)s2)n1` (stereo not drawn), for which the Kd in data set [1] is 6.3 µM. Regarding `O=C1CC2CCC(C1)N2CCc1ccc(C(F)(F)F)cc1`, the ΔTm in data set [3] was found to be 0.6 °C. The compound further returned an IC50 in data set [4] of 0.2 µM. In the case of `O=C(NCc1cccnc1)NC1CCCCC1`, the IC50 in [5] (read-out: pIC50 (converted)) was greater than 1000 µM. As for `Cc1cc(N)n(Cc2nnc(Nc3ccn(Cc4c(F)cccc4Cl)n3)s2)n1`, the Kd in [1] turned out to be 7.1 µM. Consider `O=C(O)/C=C/c1cccc(C(F)(F)F)c1`, for which, in data set [6], the ΔTm amounted to 3.2 °C. `CNCc1ccc(N2CCCCC2)cc1`: the shift in melting temperature (ΔTm) in [7] turned out to be 3.8 °C. In data set [8], this compound yielded an IC50 greater than 100 µM. The compound `O=C(O)/C(O)=C/C(=O)c1ccc2[nH]ccc2c1` yielded an IC50 in [9] of 0.02 µM. Turning to `O=C(O)c1cc(Cl)c(O)c(Cl)c1`, the minimum inhibitory concentration (MIC) in data set [10] turned out to be 971 µM (≈ 201 µg/mL). Consider `CC1(C)CCC(Cc2cc(O)c(-c3ccccc3)c(=O)[nH]2)CC1`, for which, in data set [11], the “log(activity)” value worked out at 1.5. Moreover, the IC50 in data set [5] (read-out: pIC50 (converted)) is 10 µM.

As to `NS(=O)(=O)c1cc(Cl)cc(Cl)c1`, the MIC99 in [12] is 111 µM (≈ 25.1 µg/mL). Regarding `Cc1cc(N)n(Cc2ccc(C(=O)NCc3ccc(F)cc3Cl)cc2)n1`, the Kd in data set [1] turned out to be 8 µM.

As to `Cc1c(C(=O)O)cnn1-c1ccccc1`, at Dihydrofolate reductase, the Kd came out at 0.64 µM. Besides, the thermal shift (ΔTm) in [13] came to 1.2 °C.

`O=C(OCCCC1CCCC1)N1CCCC1`: the MIC50 in data set [2] amounted to 1 µM. On to `O=C(NCCC(F)(F)F)c1ccc(-c2noc(C3CC3)n2)cc1`, for which the shift in melting temperature (ΔTm) in data set [6] worked out at 10.2 °C. For the same compound, in data set [14], the CLH amounted to 69 µL/min. The “log(activity)” value in data set [15] is given as 2. Further, in data set [16], the concentration giving a half-maximal response (EC50) worked out at 0.07 µM.

For the compound `O=C(Nc1ccc(I)cc1C(=O)O)c1ccc(Cl)c(Cl)c1`, the MIC90 in data set [17] came to 300 µM (≈ 131 µg/mL). Also, in [5] (read-out: IC50), the IC50 stood at 38 µM. For the compound `CC(=O)NC1CCN(c2ncccn2)CC1`, the IC50 in data set [5] (read-out: pIC50 (converted)) was greater than 1000 µM. In data set [4], `O=C1CC2CCC(C1)N2CCc1ccc(Cl)cc1` came in with an IC50 of 1 µM. The ΔTm in [18] is 3.4 °C. For the same compound, the microsomal CLint in data set [19] was found to be 60 µL/min/mg.

As to `N#Cc1ccc(N2CCC(CCC(=O)N3CCCC3)CC2)cc1`, in data set [7], the ΔTm was found to be 7.5 °C. In the case of `O=C(O)/C(O)=C/C(=O)c1ccccc1Br`, the MIC99 in data set [20] turned out to be 6.25 µM (≈ 1.69 µg/mL). The IC50 in data set [9] amounted to 0.6 µM. Turning to `COc1ccc(-c2nc(O)c3ccccc3n2)cc1`, the MIC99 in data set [21] worked out at 31.5 µg/mL (≈ 125 µM). Turning to `O=C(CCC1CCCC1)N1CCCC1`, the thermal shift (ΔTm) in data set [7] came to 3 °C.

As to `Cc1cncc(CNC(=O)NC2CCN(c3ncccn3)CC2)c1`, the Kd in [1] is 4.7 µM.

Turning to `O=C(CCc1c[nH]c2ccccc12)Nc1c(C(=O)O)cnn1-c1ccccc1`, the dissociation constant (Kd) at Dihydrofolate reductase stood at 0.017 µM. Further, the shift in melting temperature (ΔTm) in [13] came out at 5.1 °C. With `CCNc1nnc(Cn2nc(C)cc2C)s1`, in data set [5] (read-out: pIC50 (converted)), the IC50 was greater than 1000 µM.

Take `COc1ccc(CCC(=O)N2CCC(SS[C@@H]3CCN(C(=O)CCc4ccc(OC)cc4)C3)C2)cc1` (stereo partly drawn): the IC50 in data set [8] was found to be 1.1 µM. For the compound `CCOC(=O)c1cc(Cl)c(O)c(Cl)c1`, the MIC99 in data set [12] is less than 53 µM. Take `CC(C)(C)OC(=O)Nc1ccc(I)cc1C(=O)O`: the MIC90 in [17] is 300 µM (≈ 109 µg/mL). In data set [5] (read-out: IC50), the IC50 turned out to be 280 µM. Take `Nc1c(Cl)cc(S(N)(=O)=O)cc1Cl`: in data set [22], the minimal inhibitory concentration (MIC) is 833 µM (≈ 201 µg/mL).

These data come from ChEMBL document CHEMBL5620427, “Recent advances in Fragment-based strategies against tuberculosis” (Eur J Med Chem, 2023).
